We go through six compounds from PubChem BioAssay AID2060341 (Molecular Pharmacology Branch, DTP, NCI, 2025).

The subject of the assay is 327498-153-R-J2-PDC multicell spheroid viability. Kind of assay: Anticancer human tumor 327498-153-R-J2-PDC patient-derived uterine carcinosarcoma cell line growth inhibition [IpAb]. Conditions: for viability, T/C: stronger effect = lower value. In outline: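 Combinations with ipatasertib or abemaciclib were tested on tumour spheroids holding HUVEC (25%) and MSC (15%) alongside 60% malignant cells. Top concentration was at or near clinical Cmax (10 microM if undefined), descending in half-log steps.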

Setting [1] is: curve of first compound, second compound 0.01 µM.
[2] abbreviates: curve of first compound, second compound 0.0316 µM.
[3] abbreviates: curve of first compound, second compound 0.1 µM.
[4] abbreviates: curve of first compound, second compound 0.316 µM.
The mark [5] stands for this setting: curve of first compound, second compound 1 µM.
[6] abbreviates: second compound 0.01 µM, first compound 0.0316 µM.
The mark [7] stands for this setting: second compound 0.01 µM, first compound 0.1 µM.
[8] abbreviates: second compound 0.01 µM, first compound 0.316 µM.
Setting [9] is: second compound 0.01 µM, first compound 1 µM.
The mark [10] stands for this setting: second compound 0.01 µM, first compound 3.16 µM.
[11] abbreviates: second compound 0.01 µM, first compound 10 µM.
Where [12] appears, read: second compound 0.0316 µM, first compound 0.0316 µM.
Setting [13] is: second compound 0.0316 µM, first compound 0.1 µM.
The mark [14] stands for this setting: second compound 0.0316 µM, first compound 0.316 µM.
The mark [15] stands for this setting: second compound 0.0316 µM, first compound 1 µM.
Setting [16] is: second compound 0.0316 µM, first compound 3.16 µM.
[17] abbreviates: second compound 0.0316 µM, first compound 10 µM.
[18] abbreviates: second compound 0.1 µM, first compound 0.0316 µM.
The mark [19] stands for this setting: second compound 0.1 µM, first compound 0.1 µM.
The mark [20] stands for this setting: second compound 0.1 µM, first compound 0.316 µM.
The mark [21] stands for this setting: second compound 0.1 µM, first compound 1 µM.
Setting [22] is: second compound 0.1 µM, first compound 3.16 µM.
The mark [23] stands for this setting: second compound 0.1 µM, first compound 10 µM.
Setting [24] is: second compound 0.316 µM, first compound 0.0316 µM.
[25] abbreviates: second compound 0.316 µM, first compound 0.1 µM.
The mark [26] stands for this setting: second compound 0.316 µM, first compound 0.316 µM.
The mark [27] stands for this setting: second compound 0.316 µM, first compound 1 µM.
Setting [28] is: second compound 0.316 µM, first compound 3.16 µM.
Where [29] appears, read: second compound 0.316 µM, first compound 10 µM.
[30] abbreviates: second compound 1 µM, first compound 0.0316 µM.
Where [31] appears, read: second compound 1 µM, first compound 0.1 µM.
Where [32] appears, read: second compound 1 µM, first compound 0.316 µM.
Setting [33] is: second compound 1 µM, first compound 1 µM.
[34] abbreviates: second compound 1 µM, first compound 3.16 µM.
Setting [35] is: second compound 1 µM, first compound 10 µM.

Each structure is given as a SMILES string. Where “and” joins values, the source holds several entries; their conditions need not be identical. Equal values may be shown once.
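Further: spheroids exposed to agents for 7 days.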
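Wherever viability, T/C is given: 100% = DMSO vehicle control viability.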

One may read the IC50 as the concentration that inhibits the measured activity by half. In general, viability, T/C refers to the result in the treated group divided by that in the control group, in per cent. `Cc1nc(NC(=O)N2CCCC2C(N)=O)sc1-c1ccnc(C(C)(C)C(F)(F)F)c1` (stereo unspecified) + CCN1CCN(Cc2ccc(Nc3ncc(F)c(-c4cc(F)c5nc(C)n(C(C)C)c5c4)n3)nc2)CC1: the 50% inhibitory concentration (IC50) under setting [1] worked out at 6390 nM; the IC50 under setting [2] is 1040 nM; the half-inhibitory concentration (IC50) under setting [3] stood at 442 nM; the IC50 under setting [4] was 262 nM; the half-maximal inhibitory concentration (IC50) under setting [5] stood at 150 nM. Also, the viability, T/C is, setting by setting: under setting [6], 91.6%; under setting [7], 85.8%; under setting [8], 77%; under setting [9], 68.2%; under setting [10], 63%; under setting [11], 42.5%. In addition, the viability, T/C is 69.7% under setting [12]; 69.3% under setting [13]; 63.3% under setting [14]; 46.4% under setting [15]; 41.3% under setting [16]; 27.3% under setting [17]. Further, the viability, T/C is 61.8% under setting [18]; 58.5% under setting [19]; 50.4% under setting [20]; 46% under setting [21]; 36.9% under setting [22]; 26% under setting [23]. The viability, T/C is, setting by setting: under setting [24], 58%; under setting [25], 57.2%; under setting [26], 47.8%; under setting [27], 42.6%; under setting [28], 35.3%; under setting [29], 28.1%. Further, the viability, T/C reads like this: under setting [30], 54%; under setting [31], 55.7%; under setting [32], 43.5%; under setting [33], 41.1%; under setting [34], 34.8%; under setting [35], 25.9%.
Consider `CC1(C)CCC(CN2CCN(c3ccc(C(=O)NS(=O)(=O)c4ccc(NCC5CCOCC5)c([N+](=O)[O-])c4)c(Oc4cnc5[nH]ccc5c4)c3)CC2)=C(c2ccc(Cl)cc2)C1` + CCN1CCN(Cc2ccc(Nc3ncc(F)c(-c4cc(F)c5nc(C)n(C(C)C)c5c4)n3)nc2)CC1, for which the IC50 reads like this: under setting [1], 5020 nM; under setting [2], 5020 nM; under setting [3], 4470 nM; under setting [4], 3890 nM; under setting [5], 3560 nM. The viability, T/C under setting [6] was 100%; the viability, T/C under setting [7] was 91.6%; the viability, T/C under setting [8] was 96.6%; the viability, T/C under setting [9] is 86.9%; the viability, T/C under setting [10] is 78.4%; the viability, T/C under setting [11] is 10.2%. Also, the viability, T/C is, setting by setting: under setting [12], 78%; under setting [13], 75.8%; under setting [14], 74.9%; under setting [15], 77.2%; under setting [16], 77.6%; under setting [17], 9.98%. Moreover, the viability, T/C is 67.4% under setting [18]; 71.5% under setting [19]; 65.1% under setting [20]; 75.9% under setting [21]; 67.8% under setting [22]; 8.52% under setting [23]. Moreover, the viability, T/C was 61.8% under setting [24]; 54.3% under setting [25]; 58.8% under setting [26]; 61.4% under setting [27]; 61.3% under setting [28]; 6.66% under setting [29]. Further, the viability, T/C is, setting by setting: under setting [30], 62.9%; under setting [31], 60.7%; under setting [32], 54.5%; under setting [33], 57.8%; under setting [34], 54.8%; under setting [35], 9.15%.
For the compound `CC1(C)CCC(CN2CCN(c3ccc(C(=O)NS(=O)(=O)c4ccc(NCC5CCOCC5)c([N+](=O)[O-])c4)c(Oc4cnc5[nH]ccc5c4)c3)CC2)=C(c2ccc(Cl)cc2)C1`, the viability, T/C runs as follows: (compound 0.0316 µM) 100% and 102%; (compound 0.1 µM) 104% and 105%; (compound 0.316 µM) 108% and 112%; (compound 1 µM) 102% and 108%; (compound 3.16 µM) 107% and 98.3%; (compound 10 µM) 7.23% and 3.16%. Besides, the half-maximal inhibitory concentration (IC50) (curve of compound) is 6020 nM and 5680 nM.
With `Cn1ncnc1[C@H]1c2n[nH]c(=O)c3cc(F)cc(c23)N[C@@H]1c1ccc(F)cc1` + CC(C)NCC(C(=O)N1CCN(c2ncnc3c2C(C)CC3O)CC1)c1ccc(Cl)cc1, the 50% inhibitory concentration (IC50) runs as follows: under setting [3], 23.7 nM; under setting [4], 8.7 nM; under setting [5], 1.57 nM; (curve of first compound, second compound 3.16 µM) 0.58 nM; (curve of first compound, second compound 10 µM) under 0.316 nM. Besides, the viability, T/C (second compound 0.1 µM, first compound 0.000316 µM) was 94.7%; the viability, T/C (second compound 0.1 µM, first compound 0.001 µM) was 93.1%; the viability, T/C (second compound 0.1 µM, first compound 0.00316 µM) is 83.7%; the viability, T/C (second compound 0.1 µM, first compound 0.01 µM) is 69.7%; the viability, T/C under setting [18] was 43.1%; the viability, T/C under setting [19] is 25.1%. Besides, the viability, T/C (second compound 0.316 µM, first compound 0.000316 µM) is 74.5%; the viability, T/C (second compound 0.316 µM, first compound 0.001 µM) was 71.6%; the viability, T/C (second compound 0.316 µM, first compound 0.00316 µM) was 64%; the viability, T/C (second compound 0.316 µM, first compound 0.01 µM) is 47.8%; the viability, T/C under setting [24] was 31.1%; the viability, T/C under setting [25] was 20.6%. The viability, T/C by setting is: (second compound 1 µM, first compound 0.000316 µM) 60%; (second compound 1 µM, first compound 0.001 µM) 57.8%; (second compound 1 µM, first compound 0.00316 µM) 39.7%; (second compound 1 µM, first compound 0.01 µM) 36.6%; under setting [30], 25.8%; under setting [31], 14.7%. The viability, T/C is, setting by setting: (second compound 3.16 µM, first compound 0.000316 µM) 48.7%; (second compound 3.16 µM, first compound 0.001 µM) 53.4%; (second compound 3.16 µM, first compound 0.00316 µM) 37.8%; (second compound 3.16 µM, first compound 0.01 µM) 26.7%; (second compound 3.16 µM, first compound 0.0316 µM) 21.1%; (second compound 3.16 µM, first compound 0.1 µM) 12.8%. Besides, the viability, T/C is, setting by setting: (second compound 10 µM, first compound 0.000316 µM) 39%; (second compound 10 µM, first compound 0.001 µM) 35.2%; (second compound 10 µM, first compound 0.00316 µM) 26.9%; (second compound 10 µM, first compound 0.01 µM) 20.7%; (second compound 10 µM, first compound 0.0316 µM) 14.8%; (second compound 10 µM, first compound 0.1 µM) 10.4%.
`C=CCn1c(=O)c2cnc(Nc3ccc(N4CCN(C)CC4)cc3)nc2n1-c1cccc(C(C)(C)O)n1`: the viability, T/C was 97% and 97.5% (compound 0.0316 µM); 106% and 94.9% (compound 0.1 µM); 56.2% and 56.8% (compound 0.316 µM); 4.15% and 5.89% (compound 1 µM); 3.83% and 4.76% (compound 3.16 µM); 5.49% and 6.6% (compound 10 µM). For the same compound, for the setting “curve of compound”, the IC50 is 363 nM and 369 nM.
Consider `CC(C)n1nc(-c2ccc3oc(N)nc3c2)c2c(N)ncnc21`, for which the viability, T/C by setting is: (compound 0.000316 µM) 103% and 88.9%; (compound 0.001 µM) 96.1% and 101%; (compound 0.00316 µM) 81.9% and 88%; (compound 0.01 µM) 54.3% and 52.7%; (compound 0.0316 µM) 31.7% and 27.2%; (compound 0.1 µM) 19.6% and 18.2%. Further, the concentration for half-maximal inhibition (IC50) (curve of compound) was 12.7 nM and 11.5 nM.
